What was measured:
[1] = system: μ receptors for the opioids (MOR); experiment: mRNA expression of the μ receptors for the opioids in epithelial cells stimulated by microorganisms (real-time PCR); assay type: cell-based
[2] = system: CB1 cannabinoid receptors; experiment: mRNA expression of the CB1 receptors in epithelial cells stimulated by microorganisms (real-time PCR); assay type: cell-based
CB2 receptors = experiment: mRNA expression of the CB2 receptors in epithelial cells stimulated by microorganisms (real-time PCR); assay type: cell-based
mu-opioid receptor (MOR) = system: mu-opioid receptor (MOR); set-up: species or system Balb/c mice; details: mouse, in vivo
MOR = MOR immunohistochemistry of colonic epithelial cells of mice; assay type: in vivo, Balb/c mice; details: mouse colon sections, 10^9 CFU once a day for fourteen days
CB1 = CB1 immunohistochemistry of colonic epithelial cells of mice; assay type: in vivo, Balb/c mice; details: mouse colon sections, 10^9 CFU once a day for fourteen days
CB2 = CB2 immunohistochemistry of colonic epithelial cells of mice; assay type: in vivo, Balb/c mice; details: mouse colon sections, 10^9 CFU once a day for fourteen days
TNFα = experiment: Colonic TNF alpha mRNA expression in mice (real-time PCR); assay type: in vivo, Balb/c mice
KC = experiment: Colonic KC mRNA expression in mice (real-time PCR); assay type: in vivo, Balb/c mice
IL-1β = experiment: Colonic IL-1 beta mRNA expression in mice (real-time PCR); assay type: in vivo, Balb/c mice
[3] = Balb/c mice, oral 10^9 CFU during 15 days
[4] = mouse colon, 14 days of administration

In the case of `O=C(/C=C/c1ccc(O)c(O)c1)OCCc1ccccc1` [CAPE, caffeic acid phenetyl ester, reference compound], the “effect of NFkappaB pathway inhibition on the expression of MOR” value ([1]; HT-29 cells pre-treated with CAPE, stimulated with L. acidophilus) is reported as “did not induce modifications of the expression of MOR”.

Lactobacillus acidophilus was tested, and the “induction of the μ receptors for the opioids (in words)” value ([1]; ATCC HTB-38 epithelial cells (FIG. 1), comparator TNF-α 10 ng/ml) was “of the same order of magnitude as that obtained by TNF-α”, the “increase in the basal expression level of the mRNA of the μ receptors for the opioids” value ([1]; ATCC HTB-38 epithelial cells, after 3 hours' incubation (FIG. 1)) was “approximately 1000 fold” and the “MOR expression in the epithelial cells (in words)” value ([1]; HT-29 or Caco-2 cells, 100 bacteria/cell, from the first hour of incubation) was “strong MOR expression”. The “increase in the basal expression level of the mRNA of CB1” value ([2]; ATCC HTB-38 epithelial cells, after 3 hours' incubation (FIG. 2)) was “approximately 1000 fold”, the CB1 expression ([2]; HT-29 or Caco-2 cells, 100 bacteria/cell, 0 to 6 hours, p<0.05) was 848±180 and the “increase in the basal expression level of the mRNA of the CB2 receptors” value (CB2 receptors; ATCC HTB-38 epithelial cells, after 3 hours' incubation (FIG. 3)) was “approximately 100 fold”. The CB2 expression (CB2 receptors; HT-29 or Caco-2 cells, 100 bacteria/cell, 0 to 6 hours, p<0.01) was 1498±333, the “increase of MOR mRNA expression in the colon vs untreated animals” value (mu-opioid receptor (MOR)) was 24 fold and the “expression of MOR mRNA at the colonic level” value (mu-opioid receptor (MOR); po) was 24±0.75. For the same compound, the “epithelial stained cells for MOR” value (MOR) was 60±10%, the “epithelial stained cells for CB1” value (CB1) was 60±8% and the “epithelial stained cells for CB2” value (CB2) was 40±7%. The “diminution of the expression of colonic inflammatory cytokines (TNF alpha)” value (TNFα; [3]) was “at least 50%”, the “decreased expression of TNFα mRNA level compared to controls” value (TNFα; [4]) was “More than 50%” and the “diminution of the expression of colonic inflammatory cytokines (KC)” value (KC; [3]) was “at least 50%”. The “decreased expression of KC mRNA level compared to controls” value (KC; [4]) was “More than 50%”, the “diminution of the expression of colonic inflammatory cytokines (IL-1 beta)” value (IL-1β; [3]) was “at least 50%” and the “decreased expression of IL-1β mRNA level compared to controls” value (IL-1β; [4]) was “More than 50%”.

From US20180036355A1 (priority 2004, published 2018)
